Results on four compounds are retold here after article PMC12431657, “Discovery and mechanistic insights of dibenzoylmethane as a broad spectrum inhibitor of coronavirus” (PLOS Pathogens, 2025).

For one data set, the target named is T1, caspase-6 (Homo sapiens, UniProt P55212).
T1 construct: endogenous in cells
T1 sequence (P55212 24-293): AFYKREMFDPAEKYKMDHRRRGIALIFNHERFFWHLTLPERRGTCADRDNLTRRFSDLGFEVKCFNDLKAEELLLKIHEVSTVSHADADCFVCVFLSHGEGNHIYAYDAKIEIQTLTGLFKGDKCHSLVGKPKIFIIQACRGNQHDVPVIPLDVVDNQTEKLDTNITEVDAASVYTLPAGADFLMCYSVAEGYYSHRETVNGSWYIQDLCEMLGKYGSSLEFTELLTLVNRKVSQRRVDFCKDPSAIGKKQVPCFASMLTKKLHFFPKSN
In kind it is cell-based.

Data set [1] concerns HCoV-OC43. In kind it is cell-based.
In data set [2] the test system is HCoV-OC43. The experiment in a line: HCoV-OC43 nucleocapsid protein and caspase-6 in infected cells (Western blot). It is filed as cell-based. The following applies: cells pretreated with serially diluted compound.
Data set [3] concerns Huh-7 cells. The arrangement: unit not given beside the values.
In data set [4] the test system is Huh-7 cells. The experiment in a line: Cytotoxicity assay (CCK-8), Huh-7 cells.

The structures appear in SMILES notation. Values joined by “and” are separate entries in the source; they are usually repeats but may differ in a detail not shown here. Equal values may be shown once. Read-outs that look alike come from different tables or passages of the source. Peptide text beside a SMILES is read from it. * marks the point of attachment. Cbz = O=C(OCc1ccccc1)*; CH2F = FC*

For `CC[C@H](C)[C@H](NC(=O)[C@H](CCC(=O)OC)NC(=O)[C@@H](NC(=O)OCc1ccccc1)C(C)C)C(=O)N[C@@H](CC(=O)OC)C(=O)CF` [Z-VEID-FMK, reference compound] (Cbz-VE(OMe)ID(OMe)-CH2F), the “Caspase-6 activity (Fig5J)” value is 8.3 and 9.2 and 8.8 on caspase-6 (time point 0, replicates); 12.5 and 11.5 and 12.1 at caspase-6 (time point 2, replicates); 11.7 and 13.0 (2×) at caspase-6 (time point 4, replicates); 9.9 and 10.2 and 9.5 at caspase-6 (time point 6, replicates); 9.8 and 9.0 and 8.1 at caspase-6 (time point 8, replicates). Further, the “antiviral activity in CASP6 knockout cell pools” value in the data set on HCoV-OC43 [1] (RD cells) was “decreased”. Besides, the “Viral inhibition (Fig5K)” value was 58.3 and 64.9 and 64.7 with HCoV-OC43 [1] (concentration 2, RD-Scramble cells); 67.9 and 79.5 and 81.6 in the data set on HCoV-OC43 [1] (concentration 20, RD-Scramble cells). In the data set on HCoV-OC43 [2], the “virus replication (nucleocapsid protein, Western blot)” value is listed as “inhibited virus replication”.
For the compound `CCC/C=C1\OC(=O)C2=C1CC[C@H]1[C@H]3C=C4C(=O)O/C(=C\CCC)[C@@]4(CC3)[C@@H]21` [levistolide A], the “CC50 (Huh-7): dose-response value per replicate” value with Huh-7 cells [3] was determined as 17.6. The “selectivity index (SI)” value in the data set with Huh-7 cells [4] was “below 25”.
In the same order, the values of `COc1c(CC=C(C)C)c(O)cc2oc(=O)c3c4ccc(O)cc4oc3c12` [neoglycyrol] are 37.8 and “below 25”.
Turning to `COc1ccc2cc1Oc1ccc(cc1)C[C@H]1c3cc(c(OC)cc3CCN1C)Oc1c(OC)c(OC)cc3c1[C@H](C2)N(C)CC3` [tetrandrine], in the data set with Huh-7 cells [3] (human), the “CC50 (Huh-7): dose-response value per replicate” value was 114.8. In addition, the “selectivity index (SI)” value with Huh-7 cells [4] was “below 25”.
